Columns and labels:
[1] = biological target: T1, GluN1+NR2A (Homo sapiens, UniProt Q05586+Q12879); test: Whole-cell patch clamp, blocking of GluN1+NR2A NMDAR current in CHO cells; format: cell-based; conditions: 100 μM NMDA and 1 μM glycine, read-out: IC50 of competitive antagonism against glutamate binding GluN1+NR2A currents
T1 construct: expressed in transfected cells; host or cells: CHO cells
Procedure: Figure a illustrates LK-2 concentration-dependent blocking of signal of GluN1+GluN2A and GluN1+GluN2B subtypes of NMDAR currents (recorded from the same CHO cell) in patch clamp experiments, with 100 μM NDMA and 1 μM glycine used to activate NMDAR currents. LK-2 concentrations were 1, 10, 100, and 500 μM in sequence. Figure b illustrates the dose-response curves fitted based on the current amplitudes recorded in Figure a, with IC50 representing the half-maximal inhibitory concentration. Smaller IC50 values indicate stronger blocking effects of the compound.
(§1) [drawing 3] • 2. Electrophysiological experiments refer to the use of patch clamp techniques to overexpress ASICs (ASIC1a) and NMDARs (GluNR1+NR2A or GluNR1+NR2B) in CHO cell lines (Chinese hamster ovary cells), with the above-mentioned proteins carrying GFP green fluorescent protein for identification under fluorescence microscopy. The synthesized small molecules are separately tested for their blocking effects on the currents generated by the two types of receptors, and the IC50 values are calculated. • 2.1 The experimental steps of the membrane clamp technique are as follows.
Whole-cell patch clamp recordings were performed on neurons or CHO cells cultured in a cell-culture dish mounted on a fixed stage upright microscope. The recording electrode (resistance 4-6 MΩ) was made of 1.5 mm borosilicate glass. […]

[2] = biological target: T2, ASIC1a (Homo sapiens, UniProt P78348); test: Whole-cell patch clamp, competitive blocking of glutamate-potentiated ASIC1a current in CHO cells; format: cell-based; conditions: pH 7.0, 500 μM glutamate, read-out: IC50 of competitive antagonism against the glutamate binding ASIC1a current
T2 construct: expressed in transfected cells
T2 sequence (P78348 1-528): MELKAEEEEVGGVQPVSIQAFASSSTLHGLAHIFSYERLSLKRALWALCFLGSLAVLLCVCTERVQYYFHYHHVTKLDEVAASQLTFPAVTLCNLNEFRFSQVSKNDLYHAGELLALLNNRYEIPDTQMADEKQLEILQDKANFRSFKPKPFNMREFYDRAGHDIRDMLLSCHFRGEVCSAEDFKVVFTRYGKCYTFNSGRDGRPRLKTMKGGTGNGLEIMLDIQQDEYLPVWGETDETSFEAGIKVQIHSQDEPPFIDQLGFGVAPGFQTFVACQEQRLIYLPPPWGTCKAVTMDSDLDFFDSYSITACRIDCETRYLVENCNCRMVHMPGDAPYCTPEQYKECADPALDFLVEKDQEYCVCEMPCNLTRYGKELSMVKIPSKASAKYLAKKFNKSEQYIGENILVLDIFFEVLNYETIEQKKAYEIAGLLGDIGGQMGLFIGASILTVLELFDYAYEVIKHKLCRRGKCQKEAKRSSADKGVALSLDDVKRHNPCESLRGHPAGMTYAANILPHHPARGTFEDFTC
Procedure: Figure a illustrates the LK-2 concentration-dependent blocking of signal of ASIC1a current (recorded from the same CHO cell) activated at pH 7 in patch clamp experiments, with a glutamate concentration of 500 μM and LK-2 concentrations of 1, 10, 50, and 100 μM in sequence. […] Smaller values indicate stronger blocking effects of the compound.
as §1, with “follows. […]” for “follows.”
Chinese hamster ovary cells (CHO) and HEK293T cells (provided by the Chinese Academy of Sciences Stem Cell Bank) were cultured separately in F12 and DMEM media (Gibco) containing 10% FBS (Gibco). […] All experiments were performed 24-48 hours after transfection, and all culture dishes were washed three times with ECF before the experiment, and GFP-positive CHO cells were observed under a fluorescence microscope for patch clamp recording. […]

T1 sequence (Q12879 23-1464, other chains not shown): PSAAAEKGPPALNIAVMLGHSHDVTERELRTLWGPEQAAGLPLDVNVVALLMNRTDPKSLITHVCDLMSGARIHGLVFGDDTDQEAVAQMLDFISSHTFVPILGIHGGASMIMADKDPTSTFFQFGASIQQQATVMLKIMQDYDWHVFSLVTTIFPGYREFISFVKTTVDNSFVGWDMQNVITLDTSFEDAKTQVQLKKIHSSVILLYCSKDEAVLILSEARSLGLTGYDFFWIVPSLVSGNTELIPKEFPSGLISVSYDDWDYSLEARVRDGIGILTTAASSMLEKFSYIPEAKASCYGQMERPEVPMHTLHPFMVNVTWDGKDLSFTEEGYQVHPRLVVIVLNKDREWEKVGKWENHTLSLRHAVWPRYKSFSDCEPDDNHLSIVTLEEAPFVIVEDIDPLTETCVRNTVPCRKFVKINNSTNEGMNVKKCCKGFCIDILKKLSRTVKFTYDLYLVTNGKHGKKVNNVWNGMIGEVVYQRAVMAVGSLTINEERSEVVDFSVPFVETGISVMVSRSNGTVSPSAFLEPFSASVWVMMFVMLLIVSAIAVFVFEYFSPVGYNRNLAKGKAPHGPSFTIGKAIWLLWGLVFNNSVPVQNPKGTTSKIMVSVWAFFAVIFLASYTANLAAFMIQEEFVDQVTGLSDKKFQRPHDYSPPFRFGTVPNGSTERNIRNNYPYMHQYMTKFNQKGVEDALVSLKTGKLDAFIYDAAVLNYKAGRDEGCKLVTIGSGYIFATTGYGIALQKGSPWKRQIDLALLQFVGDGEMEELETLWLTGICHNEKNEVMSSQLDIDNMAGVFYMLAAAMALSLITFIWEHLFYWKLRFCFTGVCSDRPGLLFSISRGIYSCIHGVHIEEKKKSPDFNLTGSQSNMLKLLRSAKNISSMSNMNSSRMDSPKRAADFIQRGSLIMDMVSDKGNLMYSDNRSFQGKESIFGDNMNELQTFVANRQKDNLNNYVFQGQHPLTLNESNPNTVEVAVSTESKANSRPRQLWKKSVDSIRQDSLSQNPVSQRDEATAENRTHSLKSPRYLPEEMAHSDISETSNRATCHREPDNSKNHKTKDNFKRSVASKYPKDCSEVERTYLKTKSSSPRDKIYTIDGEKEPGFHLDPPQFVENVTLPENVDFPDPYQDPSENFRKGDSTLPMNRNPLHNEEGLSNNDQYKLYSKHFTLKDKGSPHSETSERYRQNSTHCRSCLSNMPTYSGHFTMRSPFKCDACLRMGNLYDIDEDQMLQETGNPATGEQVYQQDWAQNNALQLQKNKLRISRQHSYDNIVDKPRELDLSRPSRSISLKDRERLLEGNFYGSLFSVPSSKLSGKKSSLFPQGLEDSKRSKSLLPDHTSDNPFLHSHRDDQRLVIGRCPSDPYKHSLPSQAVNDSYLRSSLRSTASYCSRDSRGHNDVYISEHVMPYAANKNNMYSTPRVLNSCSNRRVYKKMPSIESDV

IC50 [1]: 93.1 ± 28.3 µM | IC50 [2]: 6.6 ± 2.1 µM
Structure (SMILES): O=C(O)C1CN(C(c2ccccc2)P(=O)(O)O)CCN1 (centres unmarked) [LK-2]

Reference: patent publication US20250120988A1, “SMALL MOLECULE COMPOUND FOR TREATING ISCHEMIC STROKE, ITS PREPARATION METHOD, AND APPLICATION” (SHANGHAI SIXTH PEOPLE'S HOSPITAL, priority 2023, published 2025)
